# From patent US20060084789A1, “Immunotherapeutic and immunoprphylactic reagents” (priority 2002, published 2006)
# Experiments:
# Assay type in all cases: cell-based, human
# RGP-specific TCL = experiment: TCL proliferation assay (3H-thymidine incorporation, stimulation index); settings: for Proliferative response, stimulation index: peptides 10 μg/ml
# Description: Generation of Short-Term RGP-Specific TCL
# PBMC were cultured in 24-well plates (Costar, Mass., USA) at 2.5×10^6 cells/well with RGP extract at a concentration of 25 or 50 μg/ml in RPMI 1640 medium (Gibco BRL, NY, USA) supplemented with 2 mM GlutaMAX I (Gibco BRL), 0.05 mg/ml gentamicin (David Bull Laboratories, Mulgrave, Victoria, Australia) and 5% heat-inactivated hunan AB^+ serum (Sigma, Mo., USA) for 7 days at 37° C. in a 5% CO2 humidified incubator. At day 7, cells were washed once and restimulated in 24-well plates at 5×10^5 cells/well width 25 or 50 μg/ml of RGP extract in the presence of 5×10^5 cells/well irradiated (3000 rads) autologous PBMC as a source of antigen presenting cells (APC). At day 2 following restimulation, 10 U/ml of Lymphocult T-LF (LC; Biotest, Germany) was added as a source of IL-2 and at day 4, 1 ml of culture medium was removed and replaced with fresh medium and 10 U/ml of LC. […] In all experiments T cells were rested for 6 to 7 days after the last addition of antigen and APC before testing.
# T cells (5×10^4/well) were cultured in 96-well U bottom plates with either RGP extract at concentrations ranging from 25 to 200 μg/ml, purified Lol p 1 (0.12 to 2 μg/ml) or Lol p 5 (0.1 to 10 μg/ml), or Lol p 1 or Lol p 5 peptides (10 μg/ml), or medium alone (to determine background levels of proliferation), in the presence of washed autologous irradiated (3000 rads) PBMC (5×10^4/well). […] Cultures were incubated for 3 days, pulsed for the last 16 hours with ^3H-thymidine (1 μCi/well) and harvested onto glass fibre filters. ^3H-thymidine incorporation was measured by liquid scintillation spectroscopy and the mean counts per minute (cpm) for triplicate cultures was determined. Responses were considered positive if the stimulation index (SI, cpm of antigen-stimulated T cells divided by cpm of unstimulated T cells) was ≧2.5. Where several concentrations of allergen were tested (i.e., RGP, Lol p 1 and Lol p 5), values corresponding to the highest proliferation are shown.
# [1] = tested on: IFN-γ production by RGP-specific TCL; experiment: IFN-γ detection in culture supernatants by sandwich ELISA; settings: supernatant at 48 h, UD undetectable, limit of detection 2 pg/ml
# Description: (§1) Cytokine Detection in Culture Supernatants
# (§2) Supernatants of triplicate cultures were harvested and pooled from T cell proliferation assay cultures at 48 hours for the detection of IL-5 and IFN-γ production by sandwich ELISA. Briefly white Maxisorp (NUNC, Roskilde, Denmark) ELISA plates were coated with capture mAb (anti-IL-5, Pharmingen, San Diego, Calif., USA; anti-IFN-γ, Endogen, Woburn, Mass. USA) overnight at 4° C. Plates were then washed and wells blocked with 1% Bovine Serum Albumin/PBS for 1 hour at room temperature. Following washing, test samples (neat) and serial dilutions of recombinant human IL-5 (Pharmingen, USA) or IFN-γ (Endogen, USA) (for the construction of standard curves) were added and incubated overnight at 4° C. Following washing, plates were incubated with biotinylated detecting mAb (anti-IL-5, Pharmingen, USA; […], Endogen, USA) for 1 hour at room temperature. Plates were then washed and incubated with streptavidin-peroxidase (Amersham, Piscataway, N.J., USA) for 30 minutes at room temperature. Following washing, a chemiluminescent substrate (Du Pont, Wilmington, Del., USA) was added to each well and plates read in a Lumicount microplate Glow Luminometer (Packard Instrument Company, Meriden, Conn., USA), 0.5 seconds/well, automatic sensitivity setting. Standard curve construction and determination of test sample cytokine levels were performed using Packard I-smart software. The limits of detection for IL-5 and IFN-γ were 10 pg/ml and 2 pg/ml respectively.
# [2] = tested on: IL-5 production by RGP-specific TCL; experiment: IL-5 detection in culture supernatants by sandwich ELISA; settings: supernatant at 48 h, UD undetectable, limit of detection 10 pg/ml
# Description: as §1, §2
# [3] = Subject 2 TCL, Lol p 5 series (Table 4), RGP and Lol p 5 maximal response
# [4] = Subject 11 TCL, Lol p 5 series (Table 4), RGP and Lol p 5 maximal response
# [5] = Subject 13 TCL, Lol p 5 series (Table 4), RGP and Lol p 5 maximal response
# [6] = Subject 2 TCL, Lol p 5 peptides
# [7] = Subject 4 TCL, Lol p 1 series (Table 3), RGP and Lol p 1 maximal response
# [8] = Subject 11 TCL, Lol p 1 series (Table 3), RGP and Lol p 1 maximal response
# [9] = Subject 15 TCL, Lol p 1 series (Table 3), RGP and Lol p 1 maximal response
# [10] = Subject 15 TCL, Lol p 1 peptides
# [11] = Subject 23 TCL, Lol p 1 peptides
# [12] = Subject 20 TCL, Lol p 5 series (Table 4), RGP and Lol p 5 maximal response
# [13] = Subject 38 TCL, Lol p 5 peptides
substance,measurement,setting,value
AALTKAITAMTQAQKAGKPA (Lolium perenne) [Lol p 5 peptide 226-245],"Proliferative response, stimulation index",RGP-specific TCL; [3],3.3
same,"Proliferative response, stimulation index",RGP-specific TCL; [4],3.5
same,"Proliferative response, stimulation index",RGP-specific TCL; [5],2.0
same,"Proliferative response, stimulation index","RGP-specific TCL; Subject 27 TCL, Lol p 5 series (Table 4), RGP and Lol p 5 maximal response, † affinity purified Lol p 5",7.1
same,"IFN-γ, proliferation inducing peptides",[1]; [6],292.0 pg/mL
KGKDKWIELKESWGAVWRID (Lolium perenne) [Lol p 1 peptide 181-200],"Proliferative response, stimulation index",RGP-specific TCL; [7],4.5
same,"Proliferative response, stimulation index","RGP-specific TCL; Subject 10 TCL, Lol p 1 series (Table 3), RGP and Lol p 1 maximal response",2.6
same,"Proliferative response, stimulation index",RGP-specific TCL; [8],7.3
same,"Proliferative response, stimulation index",RGP-specific TCL; [9],5.8
same,"Proliferative response, stimulation index","RGP-specific TCL; Subject 18 TCL, Lol p 1 series (Table 3), RGP and Lol p 1 maximal response",2.6
same,"Proliferative response, stimulation index","RGP-specific TCL; Subject 23 TCL, Lol p 1 series (Table 3), RGP and Lol p 1 maximal response",6.2
same,"IL-5, proliferation inducing peptides",[2]; [10],13.3 pg/mL
same,"IL-5, proliferation inducing peptides",[2]; [11],25.1 pg/mL
same,"IFN-γ, proliferation inducing peptides",[1]; [10],56.6 pg/mL
same,"IFN-γ, proliferation inducing peptides",[1]; [11],11.7 pg/mL
KPTGAGPKDNGGACGYKDVD (Lolium perenne) [Lol p 1 peptide 28-47],"Proliferative response, stimulation index",RGP-specific TCL; [7],4.1
same,"Proliferative response, stimulation index",RGP-specific TCL; [8],3.5
same,"Proliferative response, stimulation index",RGP-specific TCL; [9],7.6
same,"Proliferative response, stimulation index","RGP-specific TCL; Subject 19 TCL, Lol p 1 series (Table 3), RGP and Lol p 1 maximal response",3.0
same,"IFN-γ, proliferation inducing peptides",[1]; [10],23.2 pg/mL
same,"IFN-γ, proliferation inducing peptides","[1]; Subject 19 TCL, Lol p 1 peptides",5.2 pg/mL
DVNAGFKAAVAAAANAPPAD (Lolium perenne) [Lol p 5 peptide 37-56],"Proliferative response, stimulation index",RGP-specific TCL; [3],4.3
same,"Proliferative response, stimulation index","RGP-specific TCL; Subject 6 TCL, Lol p 5 series (Table 4), RGP and Lol p 5 maximal response",7.3
same,"Proliferative response, stimulation index",RGP-specific TCL; [4],4.5
same,"Proliferative response, stimulation index",RGP-specific TCL; [5],0.9
same,"Proliferative response, stimulation index",RGP-specific TCL; [12],4.9
same,"Proliferative response, stimulation index","RGP-specific TCL; Subject 29 TCL, Lol p 5 series (Table 4), RGP and Lol p 5 maximal response",2.8
same,"Proliferative response, stimulation index","RGP-specific TCL; Subject 35 TCL, Lol p 5 series (Table 4), RGP and Lol p 5 maximal response",4.1
same,"Proliferative response, stimulation index","RGP-specific TCL; Subject 38 TCL, Lol p 5 series (Table 4), RGP and Lol p 5 maximal response, * SDS-PAGE purified Lol p 5",4.0
same,"IL-5, proliferation inducing peptides",[2]; [6],692.8 pg/mL
same,"IL-5, proliferation inducing peptides",[2]; [13],275.1 pg/mL
same,"IFN-γ, proliferation inducing peptides",[1]; [6],7.0 pg/mL
same,"IFN-γ, proliferation inducing peptides",[1]; [13],85.0 pg/mL
"Lol p 1 peptide 136-155: synthetic 20-mer, amino acids 136-155 of Lol p 1A (SEQ ID NO:1) (RRVKCKYPDGTKPTFHVEKA; Lolium perenne)","Proliferative response, stimulation index",RGP-specific TCL; [7],2.5
same,"Proliferative response, stimulation index","RGP-specific TCL; Subject 14 TCL, Lol p 1 series (Table 3), RGP and Lol p 1 maximal response",4.4
same,"IFN-γ, proliferation inducing peptides","[1]; Subject 14 TCL, Lol p 1 peptides",106.4 pg/mL
"Lol p 1 peptide 1-20: synthetic 20-mer, amino acids 1-20 of Lol p 1A (SEQ ID NO:1) (IAKVPPGPNITAEYGDKWLD; Lolium perenne)","Proliferative response, stimulation index","RGP-specific TCL; Subject 24 TCL, Lol p 1 series (Table 3), RGP and Lol p 1 maximal response",2.6
same,"IL-5, proliferation inducing peptides","[2]; Subject 74 TCL, Lol p 1 peptides",46.1 pg/mL
"Lol p 5 peptide 91-110: synthetic 20-mer, amino acids 91-110 of Lol p 5A (SEQ ID NO:2) (YDVAYKAAEGATPEAKYDAF; Lolium perenne)",T cell responses to Lol p 5 peptides,RGP-specific TCL; 21 TCL tested,nor were T cell responses detected
"Lol p 5 peptide 163-182: synthetic 20-mer, amino acids 163-182 of Lol p 5A (SEQ ID NO:2) (AANAAPTNDKFTVFESAFNK; Lolium perenne)","Proliferative response, stimulation index",RGP-specific TCL; [12],2.5
